Results reported in US20180057507A1, “INHIBITORS OF DUAL LEUCINE ZIPPER (DLK) KINASE FOR THE TREATMENT OF DISEASE” (Board of Regents, The University of Texas System, priority 2016, published 2018).

Experiments:
human DLK [1] = target: T1, human DLK (Homo sapiens, UniProt Q12852); assay: DLK Kd Determinations (KINOMEscan KdELECT, DiscoveRx); design: full length of human DLK (amino acids 1-859); host or cells: transiently transfected HEK293 cells; unpurified extract; details: fusion protein of full length human DLK (amino acids 1-859) and NFkB DNA binding domain; qPCR readout; duplicate
T1 sequence (Q12852 1-859): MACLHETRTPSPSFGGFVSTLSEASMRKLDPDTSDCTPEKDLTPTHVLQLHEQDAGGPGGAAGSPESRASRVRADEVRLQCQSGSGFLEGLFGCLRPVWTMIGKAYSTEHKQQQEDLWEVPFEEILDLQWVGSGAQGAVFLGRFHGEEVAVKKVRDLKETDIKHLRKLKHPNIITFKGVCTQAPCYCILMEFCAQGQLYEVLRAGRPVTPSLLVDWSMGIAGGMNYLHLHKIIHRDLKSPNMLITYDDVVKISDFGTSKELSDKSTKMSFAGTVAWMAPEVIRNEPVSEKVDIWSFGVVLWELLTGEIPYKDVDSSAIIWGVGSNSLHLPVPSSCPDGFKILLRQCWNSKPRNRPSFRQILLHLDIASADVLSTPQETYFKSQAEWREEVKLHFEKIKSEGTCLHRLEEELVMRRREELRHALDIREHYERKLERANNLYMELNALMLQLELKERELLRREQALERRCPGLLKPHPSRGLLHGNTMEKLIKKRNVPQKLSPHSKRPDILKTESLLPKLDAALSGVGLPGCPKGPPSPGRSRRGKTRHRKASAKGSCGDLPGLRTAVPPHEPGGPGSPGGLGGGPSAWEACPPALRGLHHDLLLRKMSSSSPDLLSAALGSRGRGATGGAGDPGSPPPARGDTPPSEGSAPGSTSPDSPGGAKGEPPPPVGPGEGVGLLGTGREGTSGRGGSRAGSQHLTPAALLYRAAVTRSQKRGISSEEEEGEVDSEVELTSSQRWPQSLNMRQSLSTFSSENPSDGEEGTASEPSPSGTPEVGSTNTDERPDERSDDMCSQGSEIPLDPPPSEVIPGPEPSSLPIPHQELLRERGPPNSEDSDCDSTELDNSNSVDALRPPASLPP
How it was run: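 Competition binding of full-length human DLK (aa 1-859)-NFkB DBD fusion, DNA-tagged, from HEK293 extracts against an immobilized ligand; 1 h at room temperature, 0.9% DMSO. Bead-bound kinase was quantified by qPCR. Kd came from an 11-point 3-fold series (top 30,000 nM), in duplicate, with Hill slope fixed at −1.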

human DLK [2] = target: T1, human DLK; assay: Phospho-cJun Cellular Assay; type: cell-based; design: expressed in transfected cells; details: HEK293 cells stably transfected with Dox-inducible human DLK; p-cJun (Ser63); 5 h compound incubation
Method: Phospho-cJun Cellular Assay
HEK293 cells stably transfected with a Dox-inducible human DLK were plated into a 384-well plate in 20 μl (40,000 cells/well) of DMEM medium (without phenol red) containing 10% fetal bovine serum, 1.5 μg/ml doxycycline and 1 μg/ml puromycin. The cells as negative control were grown in the absence of doxycycline. The plate was incubated at 37° C., 5% CO2 for 20 h, before DMSO (control) or compounds diluted in medium were added. The cells were incubated at 37° C. for an additional 5 h, followed by lysis and the addition detection antibodies from p-cJun (Ser63) cellular assay kit (Cisbio) per manufacturer protocol. The standard dose response curves were fitted by Genedata Screener software using the variable-slope model: Signal=Signalnegative control+(SignalDMSO control−Signalnegative control)/(1+(IC50/Dose)̂Hill slope). Only signal and dose in the equation were treated as known values.

Row | SMILES | Kd (human DLK [1]) | IC50 (human DLK [2])
1 | CC(C)c1nc(-c2cnc(N)c(OC(F)(F)F)c2)cn1[C@H]1[C@@H]2CN(C3COC3)C[C@@H]21 [Example 80, 5-(2-isopropyl-1-((1R,5S,6s)-3-(oxetan-3-yl)-3-azabicyclo[3.1.0]hexan-6-yl)-1H-imidazol-4-yl)-3-(trifluoromethoxy)pyridin-2-amine] | 42 nM | 1670 nM
2 | CC(C)c1nc(-c2cnc(N)c(C(F)(F)F)c2)cn1C1CCC1 [Example 7, 5-[1-cyclobutyl-2-(propan-2-yl)-1H-imidazol-4-yl]-3-(trifluoromethyl)pyridin-2-amine] | 66 nM | 1070 nM
3 | CC(C)Cc1nc(-c2cnc(N)c(OC(F)(F)F)c2)cn1[C@H]1[C@@H]2CC(N3CCN(CCF)CC3)C[C@@H]21 (single isomer, unassigned) [Example 159b, 5-(1-(3-(4-(2-fluoroethyl)piperazin-1-yl)bicyclo[3.1.0]hexan-6-yl)-2-isobutyl-1H-imidazol-4-yl)-3-(trifluoromethoxy)pyridin-2-amine] | 49 nM | 1550 nM
4 | CC1COCCN1C1CC2C(C1)C2n1cc(-c2cnc(N)c(OC(F)(F)F)c2)nc1C1CC1 (stereo not drawn) [Example 147, 5-(2-cyclopropyl-1-(3-(3-methylmorpholino)bicyclo[3.1.0]hexan-6-yl)-1H-imidazol-4-yl)-3-(trifluoromethoxy)pyridin-2-amine] | 23 nM | 893 nM
5 | CCCc1nc(-c2cnc(N)c(C(F)(F)F)c2)cn1[C@H]1[C@@H]2CN(CCF)C[C@@H]21 [Example 84, 5-(1-((1R,5S,6s)-3-(2-fluoroethyl)-3-azabicyclo[3.1.0]hexan-6-yl)-2-propyl-1H-imidazol-4-yl)-3-(trifluoromethyl)pyridin-2-amine] | 160 nM | 1610 nM
6 | CC(C)c1nc(-c2cnc(N)c(OC(F)(F)F)c2)cn1[C@H]1[C@@H]2CC(N3CCOC[C@@H]3C)C[C@@H]21 (single isomer, unassigned) [Example 157a] | 57 nM | 895 nM
7 | Nc1ncc(-c2cn([C@H]3[C@@H]4CC(N5CCCOCC5)C[C@@H]43)c(C3CC3)n2)cc1C(F)(F)F (single isomer, unassigned) [Example 141a, 5-(1-(3-(1,4-oxazepan-4-yl)bicyclo[3.1.0]hexan-6-yl)-2-cyclopropyl-1H-imidazol-4-yl)-3-(trifluoromethyl)pyridin-2-amine] | 26 nM | 655 nM
8 | CC(C)c1nc(-c2cnc(N)c(C(F)(F)F)c2)cn1[C@H]1[C@@H]2CC(N3CCOCC3)C[C@@H]21 (single isomer, unassigned) [Example 127b] | 61 nM | 633 nM
9 | CC(C)c1nc(-c2cnc(N)c(C(F)(F)F)c2)cn1[C@H]1C[C@H](N2CCOCC2)C1 [Example 42, 5-(2-isopropyl-1-((1r,3r)-3-morpholinocyclobutyl)-1H-imidazol-4-yl)-3-(trifluoromethyl)pyridin-2-amine] | 180 nM | 2230 nM
10 | Nc1ncc(-c2cn([C@H]3[C@@H]4CN(C5COC5)C[C@@H]43)c(CC3CC3)n2)cc1C(F)(F)F [Example 2, 5-(2-(cyclopropylmethyl)-1-((1R,5S,6s)-3-(oxetan-3-yl)-3-azabicyclo[3.1.0]hexan-6-yl)-1H-imidazol-4-yl)-3-(trifluoromethyl)pyridin-2-amine] | 46 nM | 1730 nM
11 | CC(C)c1nc(-c2cnc(N)c(OC(F)F)c2)cn1[C@H]1[C@@H]2CN(C3COC3)C[C@@H]21 [Example 83, 3-(difluoromethoxy)-5-(2-isopropyl-1-((1R,5S,6s)-3-(oxetan-3-yl)-3-azabicyclo[3.1.0]hexan-6-yl)-1H-imidazol-4-yl)pyridin-2-amine] | 160 nM | 3550 nM
12 | Nc1ncc(-c2cn([C@H]3[C@@H]4CN(C5CCOCC5)C[C@@H]43)c(C3CC3)n2)cc1OC(F)(F)F [Example 66, 5-(2-cyclopropyl-1-((1R,5S,6s)-3-(tetrahydro-2H-pyran-4-yl)-3-azabicyclo[3.1.0]hexan-6-yl)-1H-imidazol-4-yl)-3-(trifluoromethoxy)pyridin-2-amine] | 59 nM | 827 nM
13 | Nc1ncc(-c2cn([C@H]3[C@@H]4CNC[C@@H]43)c(CC3CC3)n2)cc1OC(F)(F)F [Example 90, 5-(1-((1R,5S,6s)-3-azabicyclo[3.1.0]hexan-6-yl)-2-(cyclopropylmethyl)-1H-imidazol-4-yl)-3-(trifluoromethoxy)pyridin-2-amine] | 40 nM | 1120 nM

Molecules with a lower Kd (human DLK [1]), results first:

Row | Kd (human DLK [1]) | IC50 (human DLK [2]) | SMILES
14 | 22 nM | 710 nM | CN1CCN(C2CC3C(C2)C3n2cc(-c3cnc(N)c(OC(F)F)c3)nc2C2CC2)CC1 (stereo not drawn) [Example 137, 5-(2-cyclopropyl-1-(3-(4-methylpiperazin-1-yl)bicyclo[3.1.0]hexan-6-yl)-1H-imidazol-4-yl)-3-(difluoromethoxy)pyridin-2-amine]
15 | 22 nM | 891 nM | Nc1ncc(-c2cn([C@H]3[C@@H]4CC(N5CCN(CCF)CC5)C[C@@H]43)c(C3CC3)n2)cc1C(F)(F)F (single isomer, unassigned) [Example 153a, 5-(2-cyclopropyl-1-(3-(4-(2-fluoroethyl)piperazin-1-yl)bicyclo[3.1.0]hexan-6-yl)-1H-imidazol-4-yl)-3-(trifluoromethyl)pyridin-2-amine]
16 | 22 nM | 755 nM | Nc1ncc(-c2cn([C@H]3[C@@H]4CC(N5CCOCC5)C[C@@H]43)c(C3CC3)n2)cc1C(F)(F)F (single isomer, unassigned) [Example 128b, 5-(2-cyclopropyl-1-(3-morpholinobicyclo[3.1.0]hexan-6-yl)-1H-imidazol-4-yl)-3-(trifluoromethyl)pyridin-2-amine]
17 | 17 nM | 1490 nM | Nc1ncc(-c2cn([C@H]3[C@@H]4CN(CCF)C[C@@H]43)c(CC3CC3)n2)cc1C(F)(F)F [Example 77, 5-(2-(cyclopropylmethyl)-1-((1R,5S,6s)-3-(2-fluoroethyl)-3-azabicyclo[3.1.0]hexan-6-yl)-1H-imidazol-4-yl)-3-(trifluoromethyl)pyridin-2-amine]
18 | 17 nM | 597 nM | Nc1ncc(-c2cn([C@H]3[C@@H]4CC(N5CCN(CCF)CC5)C[C@@H]43)c(C3CC3)n2)cc1OC(F)(F)F (single isomer, unassigned) [Example 154b, 5-(2-cyclopropyl-1-(3-(4-(2-fluoroethyl)piperazin-1-yl)bicyclo[3.1.0]hexan-6-yl)-1H-imidazol-4-yl)-3-(trifluoromethoxy)pyridin-2-amine]
19 | 13 nM | 1150 nM | Nc1ncc(-c2cn([C@H]3[C@@H]4CC(N5CCN(CCF)CC5)C[C@@H]43)c(CC3CC3)n2)cc1OC(F)(F)F (single isomer, unassigned) [Example 152b, 5-(2-(cyclopropylmethyl)-1-(3-(4-(2-fluoroethyl)piperazin-1-yl)bicyclo[3.1.0]hexan-6-yl)-1H-imidazol-4-yl)-3-(trifluoromethoxy)pyridin-2-amine]
20 | 11 nM | 874 nM | CC(C)c1nc(-c2cnc(N)c(OC(F)(F)F)c2)cn1[C@H]1[C@@H]2CC(N3CCN(CCF)CC3)C[C@@H]21 (single isomer, unassigned) [Example 156b, 5-(1-(3-(4-(2-fluoroethyl)piperazin-1-yl)bicyclo[3.1.0]hexan-6-yl)-2-isopropyl-1H-imidazol-4-yl)-3-(trifluoromethoxy)pyridin-2-amine]
21 | 4.5 nM | 346 nM | CC(C)Cc1nc(-c2cnc(N)c(C(F)(F)F)c2)cn1[C@H]1[C@@H]2CC(N3CCN(C)CC3)C[C@@H]21 (single isomer, unassigned) [Example 146b, 5-(2-isobutyl-1-(3-(4-methylpiperazin-1-yl)bicyclo[3.1.0]hexan-6-yl)-1H-imidazol-4-yl)-3-(trifluoromethyl)pyridin-2-amine]
